ChEMBL document CHEMBL2413072, “Synthesis and in vitro anticancer studies of novel C-2 arylidene congeners of lantadenes” (2013)

What was measured:
Type in all cases: functional
[1] = system: RPMI-8226; assay: Growth inhibition of human RPMI8226 cells by sulforhodamine B assay
[2] = system: CCRF-CEM; assay: Growth inhibition of human CCRF-CEM cells by sulforhodamine B assay
[3] = system: OVCAR-3; assay: Growth inhibition of human OVCAR3 cells assessed as cell growth at 10^-8 M by sulforhodamine B assay; details: read-out: Activity
[4] = system: NCI-H460; assay: Growth inhibition of human NCI-H460 cells assessed as cell growth at 10^-8 M by sulforhodamine B assay; details: read-out: Activity
[5] = system: T47D; assay: Growth inhibition of human T47D cells by sulforhodamine B assay
[6] = Growth inhibition of human Hs 578T cells by sulforhodamine B assay
[7] = system: MDA-MB-231; assay: Growth inhibition of human MDA-MB-231 cells by sulforhodamine B assay
[8] = system: UO-31; assay: Growth inhibition of human UO31 cells by sulforhodamine B assay
[9] = system: CAKI-1; assay: Growth inhibition of human CAKI-1 cells by sulforhodamine B assay
[10] = system: T47D; assay: Growth inhibition of human T47D cells assessed as cell growth at 10^-4 M by sulforhodamine B assay; details: read-out: Activity
[11] = system: OVCAR-3; assay: Growth inhibition of human OVCAR3 cells assessed as cell growth at 10^-4 M by sulforhodamine B assay; details: read-out: Activity
[12] = system: UACC-257; assay: Growth inhibition of human UACC257 cells assessed as cell growth at 10^-4 M by sulforhodamine B assay; details: read-out: Activity
[13] = system: SK-MEL-5; assay: Growth inhibition of human SK-MEL-5 cells assessed as cell growth at 10^-4 M by sulforhodamine B assay; details: read-out: Activity
[14] = system: SK-MEL-28; assay: Growth inhibition of human SK-MEL-28 cells assessed as cell growth at 10^-4 M by sulforhodamine B assay; details: read-out: Activity
[15] = system: COLO 205; assay: Growth inhibition of human COLO205 cells assessed as cell growth at 10^-4 M by sulforhodamine B assay; details: read-out: Activity
[16] = system: NCI-H460; assay: Growth inhibition of human NCI-H460 cells assessed as cell growth at 10^-4 M by sulforhodamine B assay; details: read-out: Activity
[17] = system: NCI-H23; assay: Growth inhibition of human NCI-H23 cells assessed as cell growth at 10^-4 M by sulforhodamine B assay; details: read-out: Activity
[18] = system: MOLT-4; assay: Growth inhibition of human MOLT4 cells assessed as cell growth at 10^-4 M by sulforhodamine B assay; details: read-out: Activity
[19] = system: HL-60(TB); assay: Growth inhibition of human HL-60(TB) cells assessed as cell growth at 10^-4 M by sulforhodamine B assay; details: read-out: Activity
[20] = system: CAKI-1; assay: Growth inhibition of human CAKI-1 cells assessed as cell growth at 10^-6 M by sulforhodamine B assay; details: read-out: Activity
[21] = Growth inhibition of human NCI-ADR-RES cells assessed as cell growth at 10^-6 M by sulforhodamine B assay; details: read-out: Activity
[22] = system: OVCAR-3; assay: Growth inhibition of human OVCAR3 cells assessed as cell growth at 10^-6 M by sulforhodamine B assay; details: read-out: Activity
[23] = system: MDA-MB-435; assay: Growth inhibition of human MDA-MB-435 cells assessed as cell growth at 10^-6 M by sulforhodamine B assay; details: read-out: Activity
[24] = system: Malme-3M; assay: Growth inhibition of human MALME-3M cells assessed as cell growth at 10^-6 M by sulforhodamine B assay; details: read-out: Activity
[25] = system: U-251; assay: Growth inhibition of human U251 cells assessed as cell growth at 10^-6 M by sulforhodamine B assay; details: read-out: Activity
[26] = system: NCI-H460; assay: Growth inhibition of human NCI-H460 cells assessed as cell growth at 10^-6 M by sulforhodamine B assay; details: read-out: Activity
[27] = system: NCI-H522; assay: Growth inhibition of human NCI-H522 cells assessed as cell growth at 10^-6 M by sulforhodamine B assay; details: read-out: Activity
[28] = system: RPMI-8226; assay: Growth inhibition of human RPMI8226 cells assessed as cell growth at 10^-6 M by sulforhodamine B assay; details: read-out: Activity
[29] = system: CCRF-CEM; assay: Growth inhibition of human CCRF-CEM cells assessed as cell growth at 10^-6 M by sulforhodamine B assay; details: read-out: Activity
[30] = Growth inhibition of human Hs 578T cells assessed as cell growth at 10^-7 M by sulforhodamine B assay; details: read-out: Activity
[31] = system: OVCAR-4; assay: Growth inhibition of human OVCAR4 cells assessed as cell growth at 10^-7 M by sulforhodamine B assay; details: read-out: Activity
[32] = system: OVCAR-3; assay: Growth inhibition of human OVCAR3 cells assessed as cell growth at 10^-7 M by sulforhodamine B assay; details: read-out: Activity
[33] = system: SK-MEL-2; assay: Growth inhibition of human SK-MEL-2 cells assessed as cell growth at 10^-7 M by sulforhodamine B assay; details: read-out: Activity
[34] = system: SNB-75; assay: Growth inhibition of human SNB75 cells assessed as cell growth at 10^-7 M by sulforhodamine B assay; details: read-out: Activity
[35] = system: SF-539; assay: Growth inhibition of human SF539 cells assessed as cell growth at 10^-7 M by sulforhodamine B assay; details: read-out: Activity
[36] = system: HOP-92; assay: Growth inhibition of human HOP92 cells assessed as cell growth at 10^-7 M by sulforhodamine B assay; details: read-out: Activity
[37] = system: NCI-H226; assay: Growth inhibition of human NCI-H226 cells assessed as cell growth at 10^-7 M by sulforhodamine B assay; details: read-out: Activity
[38] = system: RPMI-8226; assay: Growth inhibition of human RPMI8226 cells assessed as cell growth at 10^-7 M by sulforhodamine B assay; details: read-out: Activity
[39] = system: CCRF-CEM; assay: Growth inhibition of human CCRF-CEM cells assessed as cell growth at 10^-7 M by sulforhodamine B assay; details: read-out: Activity
[40] = system: RXF 393; assay: Growth inhibition of human RXF393 cells assessed as cell growth at 10^-8 M by sulforhodamine B assay; details: read-out: Activity
[41] = read-out: LC50 (the source's name)
[42] = read-out: pLC50 (the source's name) (converted)

Structure (SMILES): CC1(C)C[C@@H](O)[C@]2(C(=O)O)CC[C@]3(C)C(=CC[C@@H]4[C@@]5(C)C/C(=C\C=C\c6ccccc6)C(=O)C(C)(C)[C@@H]5CC[C@]43C)[C@@H]2C1
- GI50 ([1]; read-out: GI50): 2580 nM
- CC50 [1, 41]: > 100 µM
- TGI ([1]; read-out: TGI): 7.96 µM
- GI50 ([1]; read-out: pGI50 (converted)): 2570 nM
- CC50 [1, 42]: > 100 µM
- TGI ([1]; read-out: pTGI (converted)): 7.94 µM
- GI50 ([2]; read-out: GI50): 2790 nM
- CC50 [2, 41]: > 100 µM
- TGI ([2]; read-out: TGI): 8.51 µM
- GI50 ([2]; read-out: pGI50 (converted)): 2820 nM
- CC50 [2, 42]: > 100 µM
- TGI ([2]; read-out: pTGI (converted)): 8.51 µM
- growth at 0.01 µM [3]: 102%
- growth at 0.01 µM [4]: 102%
- GI50 ([5]; read-out: GI50): 3.83 µM
- CC50 [5, 41]: > 100 µM
- TGI ([5]; read-out: TGI): 18.4 µM
- GI50 ([5]; read-out: pGI50 (converted)): 3.8 µM
- CC50 [5, 42]: > 100 µM
- TGI ([5]; read-out: pTGI (converted)): 18.2 µM
- GI50 ([6]; read-out: GI50): 3.29 µM
- CC50 [6, 41]: > 100 µM
- TGI ([6]; read-out: TGI): 20.6 µM
- GI50 ([6]; read-out: pGI50 (converted)): 3.31 µM
- CC50 [6, 42]: > 100 µM
- TGI ([6]; read-out: pTGI (converted)): 20.4 µM
- GI50 ([7]; read-out: GI50): 2020 nM
- CC50 [7, 41]: 12.5 µM
- TGI ([7]; read-out: TGI): 4.68 µM
- GI50 ([7]; read-out: pGI50 (converted)): 2040 nM
- CC50 [7, 42]: 12.6 µM
- TGI ([7]; read-out: pTGI (converted)): 4.68 µM
- GI50 ([8]; read-out: GI50): 3.39 µM
- CC50 [8, 41]: 45.9 µM
- TGI ([8]; read-out: TGI): 13.6 µM
- GI50 ([8]; read-out: pGI50 (converted)): 3.39 µM
- CC50 [8, 42]: 45.7 µM
- TGI ([8]; read-out: pTGI (converted)): 13.5 µM
- GI50 ([9]; read-out: GI50): 3.57 µM
- CC50 [9, 41]: > 100 µM
- TGI ([9]; read-out: TGI): 17.7 µM
- GI50 ([9]; read-out: pGI50 (converted)): 3.55 µM
- CC50 [9, 42]: > 100 µM
- TGI ([9]; read-out: pTGI (converted)): 17.8 µM
- growth at 100 µM [10]: -45%
- growth at 100 µM [11]: -90%
- growth at 100 µM [12]: -88%
- growth at 100 µM [13]: -99%
- growth at 100 µM [14]: -80%
- growth at 100 µM [15]: -61%
- growth at 100 µM [16]: -70%
- growth at 100 µM [17]: -83%
- growth at 100 µM [18]: -28%
- growth at 100 µM [19]: -40%
- growth at 1 µM [20]: 92%
- growth at 1 µM [21]: 87%
- growth at 1 µM [22]: 92%
- growth at 1 µM [23]: 95%
- growth at 1 µM [24]: 96%
- growth at 1 µM [25]: 85%
- growth at 1 µM [26]: 97%
- growth at 1 µM [27]: 94%
- growth at 1 µM [28]: 92%
- growth at 1 µM [29]: 96%
- growth at 0.1 µM [30]: 92%
- growth at 0.1 µM [31]: 96%
- growth at 0.1 µM [32]: 104%
- growth at 0.1 µM [33]: 91%
- growth at 0.1 µM [34]: 89%
- growth at 0.1 µM [35]: 92%
- growth at 0.1 µM [36]: 90%
- growth at 0.1 µM [37]: 92%
- growth at 0.1 µM [38]: 99%
- growth at 0.1 µM [39]: 102%
- growth at 0.01 µM [40]: 94%
